Reference: patent US4571405A, “Anti-allergic chromone- or thiochromone-5-oxamic acid derivatives, compositions, and method of use therefor” (Miles Laboratories, Inc., priority 1984, dated 1986)
Where “and” joins values, the source holds several entries; their conditions need not be identical. Identical values can stand only once. Like-named read-outs stand apart in the source and are kept apart here.

Key:
[1] = tested on: passive cutaneous anaphylaxis reaction (PCA reaction); experiment: Passive cutaneous anaphylaxis reaction (PCA reaction), intravenous, rats; type: in vivo, Male Lister-Hooded rats; conditions: for ED50: Rattus norvegicus, iv
Experimental: (§1) The antiallergic activity of the compounds of the present invention was determined by a passive cutaneous anaphylaxis reaction (PCA reaction) which was conducted as described in Life Sciences, 1, p. 465 (1963) and Immunology, 12, p. 113 (1967) both of which are incorporated herein by reference. Male Lister-Hooded rats were depilated and injected intradermally with a dilution of rat serum containing IgE antibody against ovalbumin. Twenty-four hours later the rats were challenged with an intravenous injection of the antigen (ovalbumin) and a blue indicator dye. The intensity of the passive cutaneous anaphylactic reaction was determined by observing the size of discrete blue sites (from the indicator) on the backs of the rats. Simultaneous with the challenge, one group of the rats was injected (intravenously) with various concentrations of test compounds (i.e., compounds of formula I), in order to determine the 50 percent inhibitory concentration (IC50) for each of said compounds tested. The other group of rats was administered intravenous sodium cromoglycate (SCG), a known antiallergic agent and thus served as a positive control. The results of this test are set forth in Table 1 where the IC50 for the test compounds and SCG are expressed irn micromoles per kiligram of body weight.

PCA reaction = experiment: Oral activity in PCA reaction (intragastric dose), rats; type: in vivo, Male Lister-Hooded rats; conditions: 30 mg/kg intragastrically, thirty minutes prior to antigen challenge, relative to control; for inhibition at 30 mg/kg: Rattus norvegicus, po, read-out: Percent Inhibition of PCA Reaction
Experimental: as §1
Following substantially the same technique as described above, the oral activity of various test compounds (i.e., compounds of formula I) was determined. Thirty minutes prior to the antigen challenge described above, a dose of 30 mg/kg of one of the test compounds was administered intragastrically and the percent inhibition of the percutaneous anaphylactic reaction was determined (as compared to control animals where no test compound was administered). The results of this test are set forth in Table 2 and are expressed as percent inhibition of anaphylaxis relative to control.

mast cells = experiment: Inhibition of antigen-induced histamine (spasmogen) release from passively sensitized peritoneal mast cells; type: cell-based, rats
Experimental: Peritoneal mast cells passively sensitized to antigen (dinitrophenyl-ovalbumin) 24 hours previously were obtained by lavage. Pools of cells were prepared from ten or more rats and aliquots (100 μl) were dispensed into polyethylene tubes. To each tube was added one of the test compounds at a concentration shown in Table 3 together with a constant dose (1 μg) of antigen (dinitrophenyl-bovine serum albumin). Each treatment was repeated in at least three tubes. All of the tubes were incubated at 37° C. for 10 minutes. The mast cells were sedimented by centrifugation and the supernatant fluid removed. The concentration of histamine released as a result of the addition of antigen was determined fluorimetrically and comparisons made with the concentration of histamine released in the absence of drug using the formula: [formula] where d=histamine release in presence of test compound,
a=histamine release in presence of antigen along
s=histamine release in presence of saline or drug vehicle (i.e., control).
The results of this test are set forth in Table 3 and are expressed as a percent inhibition of spasmogen release for each concentration (in moles) of the test compound utilized in the above-described procedure.

[2] = simultaneous with antigen (ovalbumin) challenge, per kilogram of body weight, read-out: INHIBITION OF PCA REACTION IC50, Compound of Example No.

SMILES	inhibition at 30 mg/kg (PCA reaction) [%]	ED50 [1, 2] [µmol/kg]	Percent Inhibition of Mast Cell Histamine Release (mast cells; 10^-2 (moles)) [%]	Percent Inhibition of Mast Cell Histamine Release (mast cells; 10^-3 (moles)) [%]	Percent Inhibition of Mast Cell Histamine Release (mast cells; 10^-4 (moles)) [%]	Percent Inhibition of Mast Cell Histamine Release (mast cells; 10^-5 (moles)) [%]	Percent Inhibition of Mast Cell Histamine Release (mast cells; 10^-6 (moles)) [%]	further results
O=C(O)C(=O)Nc1cccc2oc3c(c(=O)c12)CCCC3 [2,3cyclohexenochromone-5-oxamic acid, 2,3-cyclohexenochromone-5-oxamic acid]								INHIBITION OF PCA REACTION IC50, Compound of Example No. ([1]; intravenous, simultaneous with antigen (ovalbumin) challenge, per kilogram of body weight, listed as 2,3cyclohexeneochromone-5-oxamic acid): 11.2 micromoles/kilogram
O=C(O)C(=O)Nc1cccc2oc3c(c(=O)c12)CCCC3 [Example I, Sodium 2,3-cyclohexenochromone-5-oxamate]	27	10.4	85.7	78.6	10.9	12.6	12.0	
CC1(C)CCc2sc3cccc(NC(=O)C(=O)O)c3c(=O)c2C1 [Example V, Sodium 2,3-(4',4'-dimethylcyclohexeno)thiochromone-5-oxamate]	14	10	96.7	74.8	40.8	2.7	38.7	
CC1(C)CCC2=C(C1)C(=O)c1c(NC(=O)C(=O)O)cccc1S2(=O)=O [Example VI, Sodium 2,3-(4',4'-dimethylcyclohexeno)thiochromone-5-oxamate-1,1-dioxide]	27	16.5	95.1	86.9	44.1	3.7	4.4	
CCC1CCc2oc3cccc(NC(=O)C(=O)O)c3c(=O)c2C1 (stereo not shown) [II, Sodium 2,3-(4'-ethylcyclohexeno)chromone-5-oxamate]	46	15.5						
CC1(C)CCc2oc3cccc(NC(=O)C(=O)O)c3c(=O)c2C1 [III, Sodium 2,3-(4',4'-dimethylcyclohexeno)chromone-5-oxamate]	60	9.6	92.9	95.1	57.6	10.6	8.2	
Cc1oc2cccc(NC(=O)C(=O)O)c2c(=O)c1C [IV, Sodium 2,3-dimethylchromone-5-oxamate]	39	5						
O=C(O)c1cc(=O)c2c(OCC(O)COc3cccc4oc(C(=O)O)cc(=O)c34)cccc2o1 [SCG, sodium cromoglycate, reference compound]								ED50 ([1]; intravenous sodium cromoglycate positive control, run alongside each test compound, read-out: INHIBITION OF PCA REACTION IC50, SCG): 3.6 µmol/kg; INHIBITION OF PCA REACTION IC50, SCG ([1]; intravenous sodium cromoglycate positive control, run alongside each test compound): 2.1 micromoles/kilogram and 1.8 micromoles/kilogram and 2.4 micromoles/kilogram
O=C1c2ccccc2S(=O)(=O)c2cc(-c3nnn[nH]3)ccc21 [doxantrazole, reference compound]								Percent Inhibition of PCA Reaction (PCA reaction): ten
CCCc1c2c(c(O)c3c(=O)cc(C(=O)O)oc13)CCCC2 [proxicromil, reference compound]								Percent Inhibition of PCA Reaction (PCA reaction): ten
